According to patent US10344065B2, “Method for treating Alzheimer's disease and method for downregulating protein aggregation in brain” (National Cheng Kung University, priority 2017, dated 2019):

Experiments:
Type in all cases: in vivo, mouse
melanoma B16F10 cells = assay: B16F10 metastasis to the lung in nude mice
Description: (§1) FIG. 4 includes photos showing that Zfra suppresses melanoma B16F10-mediated neurodegeneration in the hippocampus. Nude mice were preinjected with 100 μL, of sterile Milli-Q water or Zfra4-10 (1 mM in sterile water) in 3 consecutive weeks. After treatment for a week, these mice were inoculated with melanoma B16F10 cells on both flanks (2×10^5 cells in 100-μL, PBS). Mice were sacrificed when the tumor sizes grew up to 2000-3000 mm^3 in about a month. (A) Zfra blocked neurodegeneration in the hippocampus (top panel) and prevented the formation of TPC6AΔ plaques in the cortex (bottom panel), which negatively correlates with pS14-WWOX expression. Note the presence of condensed apoptotic nuclei in the hippocampal neurons in the control mice, (B) Metastasis of B16F10 cells to the lung was blocked in Zfra-treated mice. Compared to controls, Zfra suppressed p-S14WWOX expression in the lung by ˜72% suppression (three sections). […] (C and D) The non-spatial learning and memory were determined by novel object recognition task for both 3×Tg and Wwox+/− mice. […]
(§2) Six- to eight-week-old male nude (BALB/cAnN.Cg-Foxn1^nu/CrlNarl) mice (National Laboratory Animal Center, Taiwan) were used. […] Tumor volumes were measured daily and calculated using the equation, D×(d)^2/2, where D and d are the major and minor diameters, respectively. […] Z-cell distribution in organs was determined under fluorescence microscopy.

[1] = test system: pyramidal neurons in the hippocampi; assay: Melanoma B16F10-induced neurodegeneration in nude mice; details: hippocampi of nude mice pretreated 3 consecutive weeks via tail veins, then B16F10 inoculated
Description: as §1, §2

3×Tg mice = assay: Novel object recognition test; details: vs sham
Description: All experiments were carried out in accordance with the National Institutes of Health Guidelines for animal research (Guide for the Care and Use of Laboratory Animal) and approved by the National Cheng Kung University Institutional Animal Care and Use Committee. The 3×Tg mice (B6; 129-Psen1tm1Mpm Tg[APPSwe, tauP301L]1Lfa/Mmjax), were obtained from the Jackson Laboratory (Bar Harbor, […], USA) and housed in a controlled room (temperature 23±1° C., humidity 55±5%, 12-hour light/12-hour dark cycle, light cycle begins at 06:00) located in the Laboratory Animal Center of National Cheng Kung University (Tainan, Taiwan) with unrestricted access to food and water. All mice were genotyped using a protocol provided by the Jackson Laboratory. The 3×Tg mice develop intracellular Aβ immuno-positive staining as early as 3-4 months and aggregates of hyperphosphorylated tau in the hippocampus around 12 months of age. Impaired synaptic transmission and long-term potentiation are evident about 6 months of age. At the age of 10 months (body weight, 31˜35 g), five 3×Tg mice received four consecutive weekly injections of Zfra4-10 solution (2 mM in phosphate buffered saline [PBS], 100 μL each injection) from the tail veins. […]
The experiment was performed from 6 PM each day. […] The cumulative times spent by the mouse in exploring each of the objects were recorded during a 5-minute period. […] The times spent in exploring each object during a 5-minute period were recorded in either the STM or the LTM test. […]
All experimental results were represented as mean±standard error of the mean. The results for novel object recognition test, probe test of Morris water maze, relative ventricle area, and relative optical density of pS412-tau immunoreactivity were analyzed by two-tailed Mann-Whitney test, whereas the Aβ-positive cell number was analyzed by two-tailed unpaired t-test. The Morris water maze learning section results were analyzed using a repeated mixed-model analysis of variance with training session as within-subject factor and the Zfra injection as between-subject factor. […]

## RRSSSCK [Zfra4-10, truncated zinc finger-like peptide, amino acids 4-10 of Zfra]
Melanoma B16F10 cells
  B16F10 metastasis to the lung: blocked
[1]
  apoptotic nuclei: 0±1%
3×Tg mice; 3×Tg mice, 2 hours after acquisition, P=0.074
  exploring times of the novel object, short-term memory task: marginal, but not significant, increase
3×Tg mice; 3×Tg mice, 24 hours after acquisition, P=0.008
  novel object exploring times, long-term memory task: significantly higher
3×Tg mice; 11-month-old 3×Tg mice, one week after four weekly tail vein injections (2 mM, 100 μL), 5-minute acquisition, P>0.5
  exploring times on each object, acquisition phase: approximately equal exploring times on each object
